We go through 1 compound from patent US20100292320A1, “BENZOFURAN ANILIDE HISTONE DEACETYLASE INHIBITORS” (Gilead Colorado, Inc., priority 2007, published 2010).

The target of data set [1] is T1, HDAC 1 (Homo sapiens, UniProt Q13547). In words: HDAC 1 inhibition assay, fluorophore/quencher peptide substrate, 3-hour preincubation. The note with it: about 3 hours preincubation of enzyme/compound mix at room temperature; read-out: HDAC 1 inhibitory activity (IC50 [μM]) 3-hour preincubation. It counts as biochemical. As for the experimental part:
(§1) The second assay is similar to the first assay described above, except that preincubation is carried out for about 3 hours after the enzyme is introduced. The test compound was suspended in, and titrated in DMSO. It was then spotted into a 384-well test plate. The enzyme, HDAC 1 or 6, was diluted in the same assay buffer as used in the previous assay and added to the pre-spotted compound. The enzyme/compound mix was incubated at room temperature for about 3 hours. The peptide substrate containing a fluorophore/quencher pair was diluted in the assay buffer and added to the compound/enzyme mix initiating the reaction. The reaction incubated at room temperature for 45 minutes. A concentrated developer solution was diluted in the assay buffer, and added to the reaction. The reaction was incubated at room temperature for about 15 minutes and relative fluorescence was read on an instrument reader.

For data set [2], the target named is T1, HDAC 1. Put plainly: HDAC 1 inhibition assay, fluorophore/quencher peptide substrate, no preincubation. The class given is biochemical. The following applies: no preincubation of enzyme and compound; read-out: HDAC 1 inhibitory activity (IC50 [μM]) No preincubation. As for the experimental part: (§2) HDAC inhibitory activity of the compound of Example 1 was measured by two types of assays in which HDAC 1 and 6 were used as a target molecule. The first assay was carried out without preincubation after addition of the enzyme. The test compound was suspended in and titrated in DMSO. It was then spotted into a 384-well test plate. The enzyme, HDAC 1 or 6, was diluted in assay buffer containing 25 mM Tris-HCl (pH 8.0), 137 mM NaCl, 2.7 mM KCl, and 0.01% Tween-20 and added to the pre-spotted compound. The peptide substrate containing a fluorophore/quencher pair was diluted in the same assay buffer and added to the compound/enzyme mix initiating the reaction. The reaction incubated at room temperature for about 45 minutes. A concentrated developer solution was diluted in the assay buffer, and added to the reaction. The reaction was incubated at room temperature for about 15 minutes and relative fluorescence was read on an instrument reader.

For data set [3], the target named is T2, HDAC 6 (Homo sapiens, UniProt Q9UBN7).
T2 sequence (Q9UBN7 1-1215): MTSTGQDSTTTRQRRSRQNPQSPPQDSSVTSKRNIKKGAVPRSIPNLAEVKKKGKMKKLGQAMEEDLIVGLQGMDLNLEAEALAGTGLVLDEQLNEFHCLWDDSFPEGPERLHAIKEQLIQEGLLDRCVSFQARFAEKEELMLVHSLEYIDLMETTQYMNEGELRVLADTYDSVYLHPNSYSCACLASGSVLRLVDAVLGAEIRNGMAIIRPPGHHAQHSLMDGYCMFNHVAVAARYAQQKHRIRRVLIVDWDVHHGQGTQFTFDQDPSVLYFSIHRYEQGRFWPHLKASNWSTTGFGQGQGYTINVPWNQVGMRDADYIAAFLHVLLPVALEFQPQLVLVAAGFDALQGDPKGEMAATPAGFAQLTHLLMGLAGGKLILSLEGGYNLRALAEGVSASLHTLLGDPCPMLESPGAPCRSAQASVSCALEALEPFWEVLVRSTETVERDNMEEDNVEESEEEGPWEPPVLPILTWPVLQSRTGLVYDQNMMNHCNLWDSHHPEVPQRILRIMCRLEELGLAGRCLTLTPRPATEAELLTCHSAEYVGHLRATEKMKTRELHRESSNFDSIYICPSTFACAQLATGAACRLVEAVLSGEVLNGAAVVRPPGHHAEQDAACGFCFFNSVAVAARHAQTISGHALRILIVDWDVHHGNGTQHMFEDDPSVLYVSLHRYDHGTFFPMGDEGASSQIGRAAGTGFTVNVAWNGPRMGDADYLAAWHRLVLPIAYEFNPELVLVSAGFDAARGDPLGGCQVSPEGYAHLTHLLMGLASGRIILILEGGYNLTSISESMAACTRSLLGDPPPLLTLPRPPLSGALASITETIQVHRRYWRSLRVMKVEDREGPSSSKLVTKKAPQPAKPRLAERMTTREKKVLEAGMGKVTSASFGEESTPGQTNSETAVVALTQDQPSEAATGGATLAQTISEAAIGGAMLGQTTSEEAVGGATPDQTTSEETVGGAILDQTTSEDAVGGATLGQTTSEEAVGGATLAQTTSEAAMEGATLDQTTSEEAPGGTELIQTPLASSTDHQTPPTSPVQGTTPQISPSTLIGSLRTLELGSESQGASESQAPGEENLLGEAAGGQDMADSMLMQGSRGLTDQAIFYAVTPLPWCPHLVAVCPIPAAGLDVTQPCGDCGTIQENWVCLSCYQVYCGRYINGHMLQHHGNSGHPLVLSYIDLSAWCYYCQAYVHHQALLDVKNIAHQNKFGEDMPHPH
Put plainly: HDAC 6 inhibition assay, fluorophore/quencher peptide substrate, no preincubation. It counts as biochemical. The following applies: no preincubation of enzyme and compound; read-out: HDAC 6 inhibitory activity (IC50 [μM]) No preincubation. As for the experimental part: as §2

The target in data set [4] is T2, HDAC 6. Put plainly: HDAC 6 inhibition assay, fluorophore/quencher peptide substrate, 3-hour preincubation. It counts as biochemical. The following applies: about 3 hours preincubation of enzyme/compound mix at room temperature; read-out: HDAC 6 inhibitory activity (IC50 [μM]) 3-hour preincubation. As for the experimental part:
as §1

T1 sequence (Q13547 whole entry, species assumed): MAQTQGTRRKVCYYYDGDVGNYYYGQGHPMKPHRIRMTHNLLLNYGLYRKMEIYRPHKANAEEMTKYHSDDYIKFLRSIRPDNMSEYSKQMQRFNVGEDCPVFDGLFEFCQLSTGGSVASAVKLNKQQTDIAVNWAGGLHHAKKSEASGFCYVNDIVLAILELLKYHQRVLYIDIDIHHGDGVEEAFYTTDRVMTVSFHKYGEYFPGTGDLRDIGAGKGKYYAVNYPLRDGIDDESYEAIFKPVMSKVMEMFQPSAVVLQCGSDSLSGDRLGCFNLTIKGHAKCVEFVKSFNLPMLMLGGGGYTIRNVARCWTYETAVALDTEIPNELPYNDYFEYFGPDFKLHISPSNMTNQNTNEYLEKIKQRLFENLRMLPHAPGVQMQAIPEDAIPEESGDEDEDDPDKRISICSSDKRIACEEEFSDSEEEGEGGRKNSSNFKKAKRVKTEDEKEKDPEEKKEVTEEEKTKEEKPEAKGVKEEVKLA

For orientation: melting point means the temperature, or range, at which the solid turns liquid. For orientation: IC50 means the concentration that gives 50% inhibition. `CN(C)Cc1c(C(=O)NCCOc2ccc(C(=O)Nc3ccccc3N)cc2)oc2ccccc12` [Example 1, N-(2-aminophenyl)-4-[2-(3-dimethylaminomethylbenzofuran-2-ylcarbonylamino)-ethoxy]-benzamide] yielded a melting point of 205.1 °C. In addition, the IC50 at HDAC 1 [1] amounted to 0.0033 µM. Also, the half-maximal inhibitory concentration (IC50) at HDAC 1 [2] worked out at 0.03 µM. Moreover, the half-inhibitory concentration (IC50) at HDAC 6 [3] was greater than 50 µM. Further, the IC50 at HDAC 6 [4] was greater than 50 µM.
